# From paper PMC2775485 (Journal of medicinal chemistry, 2009)
# Experiments:
# [1] = molecular target: T1, hMC1R (Homo sapiens, UniProt Q01726); experiment: Adenylate cyclase; assay type: cell-based; conditions: for functional class at hMC1R: class by maximal cAMP level relative to MTII; for fold drop in potency: hMC1R, Ac-NDP-γ-MSH-NH2 series, comparator implied: peptide 11
# [2] = molecular target: T1, hMC1R; experiment: Competition binding on whole HEK293 cells, 125I-[Nle4,DPhe7]-α-MSH; conditions: Ac-NDP-γ-MSH-NH2 series, comparator implied: peptide 11
# [3] = molecular target: T2, hMC4R (Homo sapiens, UniProt P32245); experiment: as above; conditions: for IC50: read-out: hMC4R IC50; for IC50 / hMC4R IC50: concentration of peptide at 50% specific binding, N=4, NB: No Binding at 10^-5 M
# T2 sequence (P32245 whole entry): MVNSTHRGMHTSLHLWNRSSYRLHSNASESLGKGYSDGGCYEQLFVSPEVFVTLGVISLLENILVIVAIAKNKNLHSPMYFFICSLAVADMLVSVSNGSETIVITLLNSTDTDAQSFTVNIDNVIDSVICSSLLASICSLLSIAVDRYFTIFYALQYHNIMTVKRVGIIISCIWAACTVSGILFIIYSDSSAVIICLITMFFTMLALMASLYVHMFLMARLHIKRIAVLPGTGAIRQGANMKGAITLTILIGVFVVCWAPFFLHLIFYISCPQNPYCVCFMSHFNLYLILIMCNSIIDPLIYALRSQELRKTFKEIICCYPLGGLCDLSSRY
# [4] = molecular target: hMC3R (Homo sapiens, UniProt P41968); experiment: as above; conditions: concentration of peptide at 50% specific binding, N=4; NB: No Binding at 10^-5 M
# hMC3R, sequence (P41968 whole entry): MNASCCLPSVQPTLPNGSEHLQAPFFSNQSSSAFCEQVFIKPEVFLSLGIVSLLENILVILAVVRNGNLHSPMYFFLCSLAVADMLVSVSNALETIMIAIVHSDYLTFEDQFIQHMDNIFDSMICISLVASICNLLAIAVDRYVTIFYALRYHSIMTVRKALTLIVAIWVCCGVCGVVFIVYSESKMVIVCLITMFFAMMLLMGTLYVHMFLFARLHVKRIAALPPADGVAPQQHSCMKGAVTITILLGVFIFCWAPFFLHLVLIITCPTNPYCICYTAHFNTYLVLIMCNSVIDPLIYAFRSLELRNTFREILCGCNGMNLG
# [5] = molecular target: human melanocortin 3 receptor (human) (UniProt P41968)
# human melanocortin 3 receptor (human), sequence (P41968 whole entry): as above
# [6] = molecular target: human melanocortin 1 receptor (human) (UniProt Q01726)
# human melanocortin 1 receptor (human), sequence (Q01726 whole entry): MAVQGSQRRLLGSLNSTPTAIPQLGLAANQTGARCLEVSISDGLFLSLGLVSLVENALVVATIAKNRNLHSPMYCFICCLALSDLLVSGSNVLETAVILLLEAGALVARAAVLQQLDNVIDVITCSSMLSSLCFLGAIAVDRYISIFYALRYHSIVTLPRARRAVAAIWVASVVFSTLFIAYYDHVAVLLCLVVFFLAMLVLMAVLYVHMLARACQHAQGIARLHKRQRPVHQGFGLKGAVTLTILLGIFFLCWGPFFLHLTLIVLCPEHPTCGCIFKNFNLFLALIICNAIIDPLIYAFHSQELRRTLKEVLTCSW
# [7] = molecular target: human melanocortin 1 receptor (human) (UniProt Q01726); experiment: radioligand binding
# [8] = molecular target: human melanocortin 5 receptor (human) (UniProt P33032)
# human melanocortin 5 receptor (human), sequence (P33032 whole entry): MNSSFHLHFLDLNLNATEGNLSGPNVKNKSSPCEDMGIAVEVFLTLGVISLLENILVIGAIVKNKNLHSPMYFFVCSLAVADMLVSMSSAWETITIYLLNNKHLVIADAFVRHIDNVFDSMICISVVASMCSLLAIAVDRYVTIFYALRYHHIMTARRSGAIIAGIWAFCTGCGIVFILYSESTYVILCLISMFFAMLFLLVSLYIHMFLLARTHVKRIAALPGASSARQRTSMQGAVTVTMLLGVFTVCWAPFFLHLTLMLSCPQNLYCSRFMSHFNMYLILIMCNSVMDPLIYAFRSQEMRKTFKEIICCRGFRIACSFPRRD
# [9] = molecular target: human melanocortin 4 receptor (human) (UniProt P32245)
# human melanocortin 4 receptor (human), sequence (P32245 whole entry): as the sequence (P32245 whole entry) above
# [10] = molecular target: T2, hMC4R; experiment: Adenylate cyclase; assay type: cell-based; conditions: class by maximal cAMP level relative to MTII
# [11] = molecular target: T2, hMC4R; conditions: cited from earlier work
# T1 sequence (Q01726 whole entry): as the sequence (Q01726 whole entry) above
molecule,measurement,setting,value
CCCC[C@H](NC(=O)[C@@H](NC(=O)[C@H](Cc1ccc(O)cc1)NC(C)=O)C(C)C)C(=O)NCC(=O)N[C@@H](Cc1cnc[nH]1)C(=O)N[C@H](Cc1ccccc1)C(=O)N1C[C@@H](NC(=N)N)C[C@H]1C(=O)N[C@@H](Cc1c[nH]c2ccccc12)C(=O)N[C@@H](CC(=O)O)C(=O)N[C@@H](CCCNC(=N)N)C(=O)N[C@@H](Cc1ccccc1)C(=O)NCC(N)=O [Peptide 13],functional class at hMC1R,[1],full agonist (80%-100% level of MT II)
same,fold drop in potency,[1],more than 11 fold
same,fold drop in binding affinity,[2],4-5 fold
same,IC50,[3],> 10000 nM
CCCC[C@H](NC(C)=O)C(=O)N[C@H]1CC(=O)NCCCC[C@@H](C(N)=O)NC(=O)[C@H](Cc2c[nH]c3ccccc23)NC(=O)[C@@H]2CCCN2C(=O)[C@@H](Cc2ccccc2)NC(=O)[C@H](Cc2c[nH]cn2)NC1=O [Peptide 1],functional class at hMC1R,[1],partial agonist (triggers a maximal cAMP level that is 20%-80% of MTII triggered maximal cAMP response)
CCCC[C@H](NC(C)=O)C(=O)N[C@H]1CC(=O)NCCCC[C@@H](C(N)=O)NC(=O)[C@H](Cc2c[nH]c3ccccc23)NC(=O)[C@H](CCCNC(=N)N)NC(=O)[C@@H](Cc2ccccc2)NC(=O)[C@@H]2C[C@H](NC(=N)N)CN2C1=O [Peptide 5],hMC3R IC50,[4],single-digit nanomolar range
same,hMC4R IC50,[3],single-digit nanomolar range
peptide 9 (SHU9119 with His6 replaced by 4-guanidinyl-Pro),"cAMP accumulation in receptor-transfected HEK293 cells, EC50",[5],130 nM
same,"cAMP accumulation in receptor-transfected HEK293 cells, EC50",[6],620 nM
same,"cAMP accumulation, %max of MTII",[6],25%
CCCC[C@H](NC(C)=O)C(=O)N[C@H]1CC(=O)NCCCC[C@@H](C(N)=O)NC(=O)[C@H](Cc2c[nH]c3ccccc23)NC(=O)[C@H](CCCNC(=N)N)NC(=O)[C@@H](Cc2ccccc2)NC(=O)[C@@H]2C[C@@H](NC(=N)N)CN2C1=O [Peptide 4],hMC3R IC50,[4],single-digit nanomolar range
same,hMC4R IC50,[3],single-digit nanomolar range
CCCC[C@H](NC(C)=O)C(=O)N[C@H]1CC(=O)NCCCC[C@@H](C(N)=O)NC(=O)[C@H](Cc2c[nH]c3ccccc23)NC(=O)[C@@H]2C[C@H](NC(=N)N)CN2C(=O)[C@@H](Cc2ccc3ccccc3c2)NC(=O)[C@H](Cc2c[nH]cn2)NC1=O [Peptide 8],functional class at hMC1R,[1],full agonist (80%-100% level of MT II)
CCCC[C@H](NC(C)=O)C(=O)N[C@H]1CC(=O)NCCCC[C@@H](C(N)=O)NC(=O)[C@H](Cc2c[nH]c3ccccc23)NC(=O)[C@@H]2CCCN2C(=O)[C@@H](Cc2ccc3ccccc3c2)NC(=O)[C@H](Cc2c[nH]cn2)NC1=O [Peptide 6],functional class at hMC1R,[1],partial agonist (triggers a maximal cAMP level that is 20%-80% of MTII triggered maximal cAMP response)
peptide 10 (SHU9119 with His6 replaced by 4-guanidinyl-Pro),IC50,[7],1.2 nM
same,"cAMP accumulation in receptor-transfected HEK293 cells, EC50",[8],85 nM
same,"cAMP accumulation, %max of MTII",[8],52%
same,"cAMP accumulation in receptor-transfected HEK293 cells, EC50",[9],1400 nM
same,"cAMP accumulation, %max of MTII (EC50 cell also prints 0)",[5],0%
same,"cAMP accumulation in receptor-transfected HEK293 cells, EC50",[6],1700 nM
same,"cAMP accumulation, %max of MTII",[6],90%
peptide 1 (MTII with Arg8 replaced by Pro),"cAMP accumulation in receptor-transfected HEK293 cells, EC50",[6],> 1000 nM
same,"cAMP accumulation, %max of MTII",[6],75%
CCCC[C@H](NC(=O)[C@@H](NC(=O)[C@H](Cc1ccc(O)cc1)NC(C)=O)C(C)C)C(=O)NCC(=O)N[C@@H](Cc1c[nH]cn1)C(=O)N[C@H](Cc1ccccc1)C(=O)N1CCC[C@H]1C(=O)N[C@@H](Cc1c[nH]c2ccccc12)C(=O)N[C@@H](CC(=O)O)C(=O)N[C@@H](CCCNC(=N)N)C(=O)N[C@@H](Cc1ccccc1)C(=O)NCC(N)=O [Peptide 11],functional class at hMC1R,[1],partial agonist (triggers a maximal cAMP level that is 20%-80% of MTII triggered maximal cAMP response)
same,functional class at hMC4R,[10],partial agonist (triggers a maximal cAMP level that is 20%-80% of MTII triggered maximal cAMP response)
same,"binding affinity at the hMC4R, fold lower/weaker than peptide 1",[3]; relative to control peptide 1,25 fold
same,"binding affinity at the hMC4R, fold lower than peptide 6",[3]; relative to peptide 6,8 fold
CCCC[C@H](NC(=O)[C@@H](NC(=O)[C@H](Cc1ccc(O)cc1)NC(C)=O)C(C)C)C(=O)NCC(=O)N[C@@H](Cc1cnc[nH]1)C(=O)N[C@H](Cc1ccccc1)C(=O)N1C[C@H](NC(=N)N)C[C@H]1C(=O)N[C@@H](Cc1c[nH]c2ccccc12)C(=O)N[C@@H](CC(=O)O)C(=O)N[C@@H](CCCNC(=N)N)C(=O)N[C@@H](Cc1ccccc1)C(=O)NCC(N)=O [Peptide 12],functional class at hMC1R,[1],full agonist (80%-100% level of MT II)
same,fold drop in potency,[1],more than 11 fold
same,fold drop in binding affinity,[2],4-5 fold
same,IC50,[3],> 10000 nM
"hASIP: Endogenous antagonist of the hMCRs, agouti signaling protein (protein, UniProt P42127 23-132, looked up) Agouti-signaling protein: HLPPEEKLRDDRSLRSNSSVNLLDVPSVSIVALNKKSKQIGRKAAEKKRSSKKEASMKKVVRPRTPLSAPCVATRNSCKPPAPACCDPCASCQCRFFRSACSCRVLSLNC",selectivity hMC4R/hMC3R,[11],46 fold
